From EP0192317A1, “Homocarnosine or acylhomocarnosine salts” (HAMARI YAKUHIN KOGYO KABUSHIKI KAISHA also known as HAMARI …, priority 1985, dated 1986)

Tests used:
[1] = system: Water-immersion stress ulcer; test: Water-immersion stress ulcer; type: in vivo, Male JCI-SD strain rats; conditions: for Ulcer Index (mm): 400 mg/kg orally 30 minutes before 7 hours immersion in 23°C water, sum of the lengths of the lesions in the body of the stomach; for Inhibition (%): 400 mg/kg orally, inhibition of water-immersion stress ulcer versus No drug
Protocol: After a fasting period of 24 hours, 400 mg/kg of each test compound was orally administered to each animal, and after 30 minutes, the animal was immobilized in a stress cage and was immersed in 23°C water down to the level of the thorax for 7 hours. After this stress loading, the rats was exsanguinated by decapitation and the stomach was excised and fixed in 1% formalin for 15 minutes. Then, an incision was made from the pyrolus along the greater curvature and the lengths of the lesions formed in the body of the stomach were measured using a dissecting microscope (with a scale graduated in 1/100 cm). The sum of the lengths was used as the ulcer index.

[2] = system: Pyrolic ligation-induced ulcer; test: Pyrolic ligation-induced ulcer (Shay method); type: in vivo, Male Wistar strains rats; conditions: for Inhibition (%): 300 mg/kg intraduodenally immediately after ligation, ulcer in the fore-stomach 13 hours after administration
Protocol: (b) Pyrolic ligation-induced ulcer
Male Wistar strains rats weighing about 300 g were deprived of food for 20 hours, with provision against fecal feeding, and used in groups of 8 animals. The pyrolus of each animal was ligated under ether anesthesia according to the method described by Shay et al. [H.G. Shay, S.A. Komarow, S.S. Felds, D. Meranze, M. Gruenstein, and H. Siplet, Gastroenterology, 5, 43 (1945)], and 300 mg/kg of each test compound was immediately administered intraduodenally. The incision was sutured and 13 hours after drug administration the rat was sacrified by cervical dislocation. The stomach was excised, slightly inflated by an injection of 1% formalin solution, immersed in the same solution for 15 minutes to fix the gastric wall, and then opened along the greater curvature. The ulcer in the fore-stomach was measured under a dissecting microscope .to calculate the ulcer index and the efficacy of the drug was expressed in terms of percent ulcer index.

wound = test: Wound healing-promoting activity (tension required for separating the back skin wound); type: in vivo, Male rats; conditions: for Tension: 10 g in 20 ml of peanut oil, 0.05 ml per dose once daily for 10 consecutive days, tension required for separating the wound
Protocol: 2. Wound healing-promoting activity (Method)
Male rats weighing about 180 g-were used in groups of 9 animals. The hair on the back of each rat was clipped with an electric clipper and under ether anesthesia, a wound (20 mm long) was made with a chisel having a 20 mm edge in two positions of the cropped back. A suspension of each test compound (10 g) in 20 ml of peanut oil was applied to the wound in a volume of 0.05 ml per dose once daily for 10 consecutive days. After 10 days, the animal was bled to death by decapitation and the skin of the back was peeled until the wound was separated. The tension (grams) required for separating the wound was measured as an indicator of drug efficacy.

Wistar strain rats = test: Acute toxicity study; type: in vivo; conditions: orally 5 g/kg, observed for 7 days, rats of either sex
Text: Wistar strain rats of either sex weighing 150 to 200 g were used in groups of 7 animals.

| Compound | Ulcer Index (mm) [1] | Inhibition (%) [1] | Inhibition (%) [2] | Tension (wound) | death (Wistar strain rats) | antiulcer potency among the compounds tested (in words) ([2]; summary of Tables I and II) | wound healing-promoting effect (in words) (wound; summary of Table III) |
| --- | --- | --- | --- | --- | --- | --- | --- |
| CN/C(=N/CCSCc1nc[nH]c1C)NC#N [Cimetidine, reference compound] | 4.02 mm | 60.7% | – | – | – | – | – |
| NCCCC(=O)N[C@@H](Cc1cnc[nH]1)C(=O)O [Homocarnosine, L-homocarnosine] | 8.81 mm | 13.9% | 6.2% | 218.78 g | No death | – | – |
| CC(=O)NCCCC(=O)N[C@@H](Cc1cnc[nH]1)C(=O)O [N-Acetyl-L-Homocarnosine, N-acetyl-L-homocarnosine, reference compound] | 9.95 mm | 6.7% | 2.4% | 207.45 g | No death | – | – |
| (L-homocarnosine)2 zinc salt [(Homocarnosine)2 Zn] | 6.34 mm | 38.0% | – | – | – | – | – |
| (N-acetyl-L-homocarnosine)2 zinc salt [(N-Acetyl-L-Homocarnosine)2 Zn] | 8.32 mm | 18.7% | – | – | – | – | – |
| Basic aluminum sucrose sulfate [reference compound] | 8.54 mm | 16.6% | 4.7% | – | – | – | – |
| Carnosine Zn [reference compound] | 4.61 mm | 54.9% | 39.2% | – | – | – | – |
| L-homocarnosine aluminum salt [(Homocarnosine)2 AlOH] | 7.76 mm | 24.2% | – | – | – | – | – |
| L-homocarnosine aluminum salt [(Homocarnosine)3 Al] | 8.24 mm | 19.5% | – | – | – | – | – |
| L-homocarnosine aluminum salt [Homocarnosine Al(OH)2] | 7.10 mm | 30.6% | 11.2% | 220.28 g | – | – | – |
| L-homocarnosine zinc salt [Homocarnosine Zn] | 3.85 mm | 62.4% | 46.2% | 249.36 g | – | the most potent | particularly excellent |
| N-acetyl-L-homocarnosine aluminum salt [(N-Acetyl-L-Homocarnosine)2 Al] | 8.46 mm | 17.3% | – | – | – | – | – |
| N-acetyl-L-homocarnosine aluminum salt [N-Acetyl-L-Homocarnosine Al(OH)2] | 5.40 mm | 47.2% | 38.7% | 203.57 g | – | – | – |
| N-acetyl-L-homocarnosine zinc salt [N-Acetyl-L-Homocarnosine Zn] | 7.06 mm | 31.0% | 22.1% | 233.64 g | – | – | – |
